Data published in patent publication US9034897B2, “Indanyl-substituted 4,5,6,7-tetrahydro-1H-pyrazolo[4,3-C]pyridines, their use as medicament, and pharmaceutical preparations comprising them” (SANOFI, priority 2011, dated 2015).

Experiments:
Human TASK-1 channels = Human TASK-1 channels (Homo sapiens (Human), UniProt O14649); assay: Activity on the TASK-1 channel in Xenopus oocytes (two-microelectrode voltage clamp); format: cell-based; conditions: for IC50: human TASK-1 expressed in Xenopus oocytes, currents during 500 ms pulses to 40 mV, room temperature; for inhibition at 5 µM: percentage inhibition of TASK-1 control current, Xenopus oocytes
Sequence of Human TASK-1 channels (O14649 whole entry): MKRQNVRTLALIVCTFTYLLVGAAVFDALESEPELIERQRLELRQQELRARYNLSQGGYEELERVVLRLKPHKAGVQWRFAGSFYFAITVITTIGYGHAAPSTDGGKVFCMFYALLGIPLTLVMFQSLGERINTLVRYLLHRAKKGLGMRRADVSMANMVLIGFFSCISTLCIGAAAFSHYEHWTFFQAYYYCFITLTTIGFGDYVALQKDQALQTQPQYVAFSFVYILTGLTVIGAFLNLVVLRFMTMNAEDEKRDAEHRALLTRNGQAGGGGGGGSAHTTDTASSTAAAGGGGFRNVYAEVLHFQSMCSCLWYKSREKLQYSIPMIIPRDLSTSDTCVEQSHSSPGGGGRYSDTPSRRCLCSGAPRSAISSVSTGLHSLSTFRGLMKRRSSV
Method: Determination of the activity on the TASK-1 channel in Xenopus oocytes:
Human TASK-1 channels were expressed in Xenopus oocytes. For this purpose, oocytes were isolated from Xenopus laevis and defolliculated. Subsequently, TASK-1-encoding RNA synthesized in vitro was injected into oocytes. After two days of TASK-1 protein expression, TASK-1 currents were measured by two-microelectrode voltage clamp. Data were acquired and analyzed using a TEC-10cx amplifier (NPI Electronic, Tamm, Germany) connected to an ITC-16 interface (Instrutech Corp., Long Island, USA) and Pulse software (HEKA Elektronik, Lambrecht, Germany). Oocytes were clamped to −90 mV and TASK-1 mediated currents were measured during 500 ms voltage pulses to 40 mV. Oocytes were continuously superfused with ND96 buffer containing: NaCl 96 mM, KCl2 mM, CaCl2 1.8 mM, MgCl2 1 mM, HEPES 5 mM (pH adjusted to 7.4 with NaOH). All experiments were performed at room temperature.
Test substances were consecutively added to the bath solution at rising concentrations. Compound effects were calculated as the percentage inhibition of
TASK-1 control current before compound application. IC50 values were obtained by fitting the data to the general dose-response equation.

[1] = system: left atrium of the anesthetized pig; assay: Refractory period and left-atrial vulnerability in the anesthetized pig; format: in vivo; conditions: bolus 1 mg/kg, n = 2
Method: Investigation of the refractory period and the left-atrial vulnerability in the pig:
The compounds were tested for prolongation of the refractory period and antiarrhythmic activity on the atrium of the anesthetized pig as described in the literature (Knobloch et al. 2002. Naunyn-Schmiedberg's Arch. Pharmacol. 366; 482-487). Here the anti-arrhythmic action relates to the inhibition of the occurrence of episodes of arrhythmias which are induced by a prematurely placed extra-stimulus (S2) in the left atrium (=left-atrial vulnerability). The refractory period values are stated in percent of the basal values 15 minutes after injection. Mean values for the refractory periods are shown from three rates (150, 200 and 250/min). The inhibitory values for the inhibition of episodes of arrhythmias refer to 3 measurements (3 timepoints) before administration vs. 3 measurements during the first hour after administration of the compounds.
The action of 3-[5-Acetyl-1-((1R,2R)-6-chloro-4-fluoro-2-hydroxy-indan-1-yl)-4,5,6,7-tetrahydro-1H-pyrazolo[4,3-c]pyridin-3-yl]-benzonitrile (11j) on the refractory period of the left atrium and antiarrhythmic activity in the anesthetized pig after a bolus administration of 1 mg/kg is shown in table 12. From the results shown in table 12, it is seen that it was possible to prevent 82% of the induced arrhythmias.

Row | Compound | IC50 (Human TASK-1 channels) [nM] | also measured
1 | CC(=O)N1CCc2c(c(-c3cccc(C#N)c3)nn2[C@@H]2c3cc(Cl)cc(F)c3C[C@H]2O)C1 [Example 11j, 3-[5-Acetyl-1-((1R,2R)-6-chloro-4-fluoro-2-hydroxy-indan-1-yl)-4,5,6,7-tetrahydro-1H-pyrazolo[4,3-c]pyridin-3-yl]-benzonitrile] | 439 | % inhibition of the arrhythmias ([1]; S2-induced left-atrial arrhythmias, first hour after administration): 82%; % increase in the refractory period ([1]; left atrium, 15 minutes after injection, mean of three rates (150, 200 and 250/min)): 20%
2 | N#Cc1cccc(-c2nn([C@@H]3c4cc(F)cc(F)c4C[C@H]3O)c3c2CN(CC2CC2)CC3)c1 [Example 18e, 3-[5-Cyclopropylmethyl-1-((1R,2R)-4,6-difluoro-2-hydroxy-indan-1-yl)-4,5,6,7-tetrahydro-1H-pyrazolo[4,3-c]pyridin-3-yl]-benzonitrile] |  | inhibition at 5 µM (Human TASK-1 channels): 81%
3 | CC(=O)N1CCc2c(c(-c3cccc(C#N)c3)nn2[C@@H]2c3cc(F)cc(C4CC4)c3C[C@H]2O)C1 [Example 20a, 3-[5-Acetyl-1-((1R,2R)-4-cyclopropyl-6-fluoro-2-hydroxy-indan-1-yl)-4,5,6,7-tetrahydro-1H-pyrazolo[4,3-c]pyridin-3-yl]-benzonitrile] | 500 | 
4 | CC(=O)N1CCc2c(c(-c3cccc(C#N)c3)nn2[C@@H]2c3cc(F)cc(F)c3C[C@@]2(C)O)C1 (racemic) [Example 11w, Racemic 3-[5-Acetyl-1-((1R,2R)-4,6-difluoro-2-hydroxy-2-methyl-indan-1-yl)-4,5,6,7-tetrahydro-1H-pyrazolo[4,3-c]pyridin-3-yl]-benzonitrile] | 1260 | 
5 | CC(=O)N1CCc2c(c(-c3cccc(C(F)(F)F)n3)nn2[C@@H]2c3cc(Cl)cc(Cl)c3C[C@H]2O)C1 [Example 11m, 1-[1-((1R,2R)-4,6-Dichloro-2-hydroxy-indan-1-yl)-3-(6-trifluoromethyl-pyridin-2-yl)-1,4,6,7-tetrahydro-pyrazolo[4,3-c]pyridin-5-yl]-ethanone] | 518 | 
6 | CC(=O)N1CCc2c(c(-c3cccc(C(F)(F)F)n3)nn2[C@@H]2c3cc(F)cc(F)c3C[C@H]2O)C1 [Example 11e, 1-[1-((1R,2R)-4,6-Difluoro-2-hydroxy-indan-1-yl)-3-(6-trifluoromethyl-pyridin-2-yl)-1,4,6,7-tetrahydro-pyrazolo[4,3-c]pyridin-5-yl]-ethanone] | 239 | 
7 | CCCN1CCc2c(c(-c3ccc(F)cc3)nn2[C@@H]2c3cc(F)cc(F)c3C[C@H]2O)C1 [Example 18f, (1R,2R)-4,6-Difluoro-1-[3-(4-fluoro-phenyl)-5-propyl-4,5,6,7-tetrahydro-pyrazolo[4,3-c]pyridin-1-yl]-indan-2-ol] |  | inhibition at 5 µM (Human TASK-1 channels): 67%
8 | CC(=O)N1CCc2c(c(-c3ccc(F)c(C#N)c3)nn2[C@@H]2c3cc(F)cc(F)c3C[C@H]2O)C1 [Example 11z, 5-[5-Acetyl-1-((1R,2R)-4,6-difluoro-2-hydroxy-indan-1-yl)-4,5,6,7-tetrahydro-1H-pyrazolo[4,3-c]pyridin-3-yl]-2-fluoro-benzonitrile] | 2130 | 
9 | CC(=O)N1CCc2c(c(-c3cccc(C#N)c3)nn2[C@@H]2c3cc(F)cc(F)c3C[C@H]2O)C1 [Example 11t, 3-[5-Acetyl-1-((1R,2R)-4,6-difluoro-2-hydroxy-indan-1-yl)-4,5,6,7-tetrahydro-1H-pyrazolo[4,3-c]pyridin-3-yl]-benzonitrile] | 881 | 
10 | NC(=O)c1cccc(-c2nn([C@@H]3c4cc(F)cc(F)c4C[C@H]3O)c3c2CN(C(=O)C2CC2)CC3)c1 [Example 15b, 3-[5-Cyclopropanecarbonyl-1-((1R,2R)-4,6-difluoro-2-hydroxy-indan-1-yl)-4,5,6,7-tetrahydro-1H-pyrazolo[4,3-c]pyridin-3-yl]-benzamide] |  | inhibition at 5 µM (Human TASK-1 channels): 24%
11 | CO[C@@H]1Cc2c(F)cc(F)cc2[C@H]1n1nc(-c2cccc(C#N)c2)c2c1CCN(C(C)=O)C2 [Example 16a, 3-[5-Acetyl-1-((1R,2R)-4,6-difluoro-2-methoxy-indan-1-yl)-4,5,6,7-tetrahydro-1H-pyrazolo[4,3-c]pyridin-3-yl]-benzonitrile] | 446 | 
12 | CS(=O)(=O)N1CCc2c(c(-c3cccc(C#N)c3)nn2[C@@H]2c3cc(Cl)cc(Cl)c3C[C@H]2O)C1 [Example 23a, 3-[1-((1R,2R)-4,6-Dichloro-2-hydroxy-indan-1-yl)-5-methanesulfonyl-4,5,6,7-tetrahydro-1H-pyrazolo[4,3-c]pyridin-3-yl]-benzonitrile] |  | inhibition at 5 µM (Human TASK-1 channels): 80%
13 | CCC(=O)N1CCc2c(c(-c3cccc(C#N)c3)nn2[C@@H]2c3cc(F)cc(F)c3C[C@H]2O)C1 [Example 14a, 3-[1-((1R,2R)-4,6-Difluoro-2-hydroxy-indan-1-yl)-5-propionyl-4,5,6,7-tetrahydro-1H-pyrazolo[4,3-c]pyridin-3-yl]-benzonitrile] | 70 | 
14 | N#Cc1cccc(-c2nn([C@@H]3c4cc(F)cc(F)c4C[C@H]3O)c3c2CN(C(=O)C2CC2)CC3)c1 [Example 14b, 3-[5-Cyclopropanecarbonyl-1-((1R,2R)-4,6-difluoro-2-hydroxy-indan-1-yl)-4,5,6,7-tetrahydro-1H-pyrazolo[4,3-c]pyridin-3-yl]-benzonitrile] | 83.1 | 
15 | CC(=O)N1CCc2c(c(-c3ccc(F)cc3)nn2[C@@H]2c3cc(Cl)cc(F)c3C[C@H]2O)C1 [Example 11n, 1-[1-((1R,2R)-6-Chloro-4-fluoro-2-hydroxy-indan-1-yl)-3-(4-fluoro-phenyl)-1,4,6,7-tetrahydro-pyrazolo[4,3-c]pyridin-5-yl]-ethanone] | 568 | 
16 | COC(=O)N1CCc2c(c(-c3cccc(C#N)c3)nn2[C@@H]2c3cc(F)cc(F)c3C[C@H]2O)C1 [Example 17a, 3-(3-Cyano-phenyl)-1-((1R,2R)-4,6-difluoro-2-hydroxy-indan-1-yl)-1,4,6,7-tetrahydro-pyrazolo[4,3-c]pyridine-5-carboxylic acid methyl ester] | 260 | 
17 | CC(=O)N1CCc2c(c(-c3cccc(F)c3)nn2[C@@H]2c3cc(F)cc(F)c3C[C@H]2O)C1 [Example 11aa, 1-[1-((1R,2R)-4,6-Difluoro-2-hydroxy-indan-1-yl)-3-(3-fluoro-phenyl)-1,4,6,7-tetrahydro-pyrazolo[4,3-c]pyridin-5-yl]-ethanone] | 2220 | 
18 | CCC(=O)O[C@@H]1Cc2c(F)cc(F)cc2[C@H]1n1nc(-c2cccc(C#N)c2)c2c1CCN(C(=O)CC)C2 [Example 15a, Propionic acid (1R,2R)-1-[3-(3-cyano-phenyl)-5-propionyl-4,5,6,7-tetrahydro-pyrazolo[4,3-c]pyridin-1-yl]-4,6-difluoro-indan-2-yl ester] |  | inhibition at 5 µM (Human TASK-1 channels): 51%
19 | CC(=O)N1CCc2c(c(-c3ccc(F)cc3)nn2[C@@H]2c3cc(Cl)c(Cl)cc3C[C@H]2O)C1 (racemic) [Example 11u, racemic 1-[1-((1R,2R)-5,6-Dichloro-2-hydroxy-indan-1-yl)-3-(4-fluoro-phenyl)-1,4,6,7-tetrahydro-pyrazolo[4,3-c]pyridin-5-yl]-ethanone] | 1010 | 
